This passage reports IC50 results from patent US20240199546A1, “INHIBITORS OF SOLUTE CARRIER FAMILY 6A MEMBER 19 (SLC6A19) AND METHODS OF USE THEREOF” (Maze Therapeutics, Inc., priority 2022, published 2024).

Where only a bound is given, the exact number is not on record here.

This assay has as its target T1, human SLC6A19 and TMEM27 (Homo sapiens, UniProt Q695T7).
T1 construct: expressed in transfected cells
T1 sequence (Q695T7 1-634): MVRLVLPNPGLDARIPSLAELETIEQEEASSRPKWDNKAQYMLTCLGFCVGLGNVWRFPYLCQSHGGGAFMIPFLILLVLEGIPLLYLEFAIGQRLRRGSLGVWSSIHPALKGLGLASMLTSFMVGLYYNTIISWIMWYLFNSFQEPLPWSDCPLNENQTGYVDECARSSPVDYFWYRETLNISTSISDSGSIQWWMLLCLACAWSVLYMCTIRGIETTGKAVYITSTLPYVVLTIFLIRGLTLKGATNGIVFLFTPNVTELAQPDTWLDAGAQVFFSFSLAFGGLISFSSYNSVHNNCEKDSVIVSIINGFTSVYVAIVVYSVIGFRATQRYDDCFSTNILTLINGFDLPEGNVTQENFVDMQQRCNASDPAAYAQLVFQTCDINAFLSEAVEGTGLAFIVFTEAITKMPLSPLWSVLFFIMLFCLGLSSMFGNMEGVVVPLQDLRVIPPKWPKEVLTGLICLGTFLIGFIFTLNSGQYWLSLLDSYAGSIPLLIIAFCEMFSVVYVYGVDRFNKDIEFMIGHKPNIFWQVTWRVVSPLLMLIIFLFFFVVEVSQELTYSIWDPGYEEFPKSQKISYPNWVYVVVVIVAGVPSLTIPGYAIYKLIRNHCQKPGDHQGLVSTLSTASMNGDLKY
T1 sequence (Q9HBJ8 15-222 partner): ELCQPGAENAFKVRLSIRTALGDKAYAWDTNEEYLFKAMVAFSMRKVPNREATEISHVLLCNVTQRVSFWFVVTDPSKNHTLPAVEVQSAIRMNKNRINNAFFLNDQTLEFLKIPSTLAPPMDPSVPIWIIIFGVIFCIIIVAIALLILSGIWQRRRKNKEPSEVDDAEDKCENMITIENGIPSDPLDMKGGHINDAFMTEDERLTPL
The assay can be described thus: Radiolabelled (3H) leucine uptake in CHO cells with doxycycline-inducible expression of human SLC6A19 and TMEM27 (Example B-1). It counts as cell-based. The following applies: CHO cells with doxycycline-inducible expression of human SLC6A19 and TMEM27, read-out: SLC6A19_Radioligand Uptake Assay IC50. The procedure, abridged:
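CHO cells were induced with doxycycline for 18 h at 37 °C, washed in HBSS, then exposed to compounds for 1 h: 8-point, 3-fold dilutions in duplicate, 0.5% DMSO final. Uptake measured by scintillation counting after 2 h shaking. Activity normalized with positive control as 0% and DMSO as 100%.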
For the compound `Cc1cc(COc2cc3[nH]c(CNC(=O)[C@@H](C)O)cc3cc2F)on1` [Compound 283, (R)-N-((5-fluoro-6-((3-methylisoxazol-5-yl)methoxy)-1H-indol-2-yl)methyl)-2-hydroxypropanamide], the IC50 is greater than 8950 nM. For the compound `Cc1cc(COc2cc3[nH]c(CNC(=O)[C@H](C)O)cc3cc2Cl)on1` [Compound 284, (S)-N-((5-chloro-6-((3-methylisoxazol-5-yl)methoxy)-1H-indol-2-yl)methyl)-2-hydroxypropanamide], the IC50 turned out to be 172 nM. Then `C[C@H](O)C(=O)NCc1cc2cc(Cl)c(OCc3cscn3)cc2[nH]1` [Compound 285, (S)-N-((5-chloro-6-(thiazol-4-ylmethoxy)-1H-indol-2-yl)methyl)-2-hydroxypropanamide], with 322 nM; and `Cc1cc(COc2cc3[nH]c(CNC(=O)C[C@H](C)O)cc3cc2Cl)on1` [Compound 286, (S)-N-((5-chloro-6-((3-methylisoxazol-5-yl)methoxy)-1H-indol-2-yl)methyl)-3-hydroxybutanamide], with 910 nM; and `Cc1cc(COc2cc3[nH]c(CNC(=O)C[C@@H](C)O)cc3cc2Cl)on1` [Compound 287, (R)-N-((5-chloro-6-((3-methylisoxazol-5-yl)methoxy)-1H-indol-2-yl)methyl)-3-hydroxybutanamide], with 2400 nM. For the compound `Cc1cc(COc2cc3[nH]c(CNC(=O)CC4(C)COC4)cc3cc2Cl)on1` [Compound 288, N-((5-chloro-6-((3-methylisoxazol-5-yl)methoxy)-1H-indol-2-yl)methyl)-2-(3-methyloxetan-3-yl)acetamide], the IC50 came to 3260 nM. With `Cc1cc(COc2cc3[nH]c(CNC(=O)C[C@@H]4CCOC4)cc3cc2Cl)on1` [Compound 289, (S)-N-((5-chloro-6-((3-methylisoxazol-5-yl)methoxy)-1H-indol-2-yl)methyl)-2-(tetrahydrofuran-3-yl)acetamide], the IC50 worked out at 2020 nM. Then `Cc1cc(COc2cc3[nH]c(CNC(=O)C[C@H]4CCOC4)cc3cc2Cl)on1` [Compound 290, (R)-N-((5-chloro-6-((3-methylisoxazol-5-yl)methoxy)-1H-indol-2-yl)methyl)-2-(tetrahydrofuran-3-yl)acetamide], with 5290 nM; and `CO[C@@H](C)C(=O)NCc1cc2cc(Cl)c(OCc3cscn3)cc2[nH]1` [Compound 291, (S)-N-((5-chloro-6-(thiazol-4-ylmethoxy)-1H-indol-2-yl)methyl)-2-methoxypropanamide], with 197 nM; and `CO[C@H](C)C(=O)NCc1cc2cc(Cl)c(OCc3cscn3)cc2[nH]1` [Compound 292, (R)-N-((5-chloro-6-(thiazol-4-ylmethoxy)-1H-indol-2-yl)methyl)-2-methoxypropanamide], with 666 nM.

On to `O=C(NCc1cc2cc(Cl)c(OCc3cscn3)cc2[nH]1)[C@@H]1CCCO1` [Compound 293, (S)-N-((5-chloro-6-(thiazol-4-ylmethoxy)-1H-indol-2-yl)methyl)tetrahydrofuran-2-carboxamide], for which the IC50 came to 500 nM. Then `Cc1cc(COc2cc3[nH]c(CNC(=O)COC(F)F)cc3cc2Cl)on1` [Compound 294, N-((5-chloro-6-((3-methylisoxazol-5-yl)methoxy)-1H-indol-2-yl)methyl)-2-(difluoromethoxy)acetamide], with 135 nM. Then `Cc1cc(COc2cc3[nH]c(CNC(=O)C4(CO)CCCO4)cc3cc2Cl)on1` (stereo not drawn) [Compound 295, N-((5-chloro-6-((3-methylisoxazol-5-yl)methoxy)-1H-indol-2-yl)methyl)-2-(hydroxymethyl)tetrahydrofuran-2-carboxamide], with 1610 nM; and `Cc1cc(COc2cc3[nH]c(CNC(=O)C45CCC(CC4)O5)cc3cc2Cl)on1` [Compound 296, N-((5-chloro-6-((3-methylisoxazol-5-yl)methoxy)-1H-indol-2-yl)methyl)-7-oxabicyclo[2.2.1]heptane-1-carboxamide], with 976 nM; and `Cc1cc(COc2cc3[nH]c(CNC(=O)C45COC(C4)C5)cc3cc2Cl)on1` [Compound 298, N-((5-chloro-6-((3-methylisoxazol-5-yl)methoxy)-1H-indol-2-yl)methyl)-2-oxabicyclo[2.1.1]hexane-4-carboxamide], with 921 nM.

With `COCCOCC(=O)NCc1cc2cc(Cl)c(OCc3cc(C)no3)cc2[nH]1` [Compound 299, N-((5-chloro-6-((3-methylisoxazol-5-yl)methoxy)-1H-indol-2-yl)methyl)-2-(2-methoxyethoxy)acetamide], the IC50 is greater than 9060 nM. Regarding `Cc1cc(COc2cc3[nH]c(CNC(=O)C45COCC4C5)cc3cc2Cl)on1` (stereo not drawn) [Compound 300, N-((5-chloro-6-((3-methylisoxazol-5-yl)methoxy)-1H-indol-2-yl)methyl)-3-oxabicyclo[3.1.0]hexane-1-carboxamide], the IC50 came out at 321 nM. Under `Cc1cc(COc2cc3[nH]c(CNC(=O)C45CC(CO4)C5)cc3cc2Cl)on1` [Compound 301, N-((5-chloro-6-((3-methylisoxazol-5-yl)methoxy)-1H-indol-2-yl)methyl)-2-oxabicyclo[2.1.1]hexane-1-carboxamide] stands 327 nM; under `Cc1cc(COc2cc3[nH]c(CNC(=O)[C@H]4COCCN4C)cc3cc2Cl)on1` [Compound 302, (R)-N-((5-chloro-6-((3-methylisoxazol-5-yl)methoxy)-1H-indol-2-yl)methyl)-4-methylmorpholine-3-carboxamide], 7110 nM; under `Cc1cc(COc2cc3[nH]c(CNC(=O)[C@@H]4COCCO4)cc3cc2Cl)on1` [Compound 303, (S)-N-((5-chloro-6-((3-methylisoxazol-5-yl)methoxy)-1H-indol-2-yl)methyl)-1,4-dioxane-2-carboxamide], 814 nM.

Take `Cc1cc(COc2cc3[nH]c(CNC(=O)[C@H]4COCCO4)cc3cc2Cl)on1` [Compound 304, (R)-N-((5-chloro-6-((3-methylisoxazol-5-yl)methoxy)-1H-indol-2-yl)methyl)-1,4-dioxane-2-carboxamide]: the IC50 amounted to 718 nM. Under `Cc1cc(COc2cc3[nH]c(CNC(=O)C4(F)CCOC4)cc3cc2Cl)on1` (stereo not drawn) [Compound 305, N-((5-chloro-6-((3-methylisoxazol-5-yl)methoxy)-1H-indol-2-yl)methyl)-3-fluorotetrahydrofuran-3-carboxamide] stands 209 nM; under `Cc1cc(COc2cc3[nH]c(CNC(=O)C4OCCC4(F)F)cc3cc2Cl)on1` (stereo not drawn) [Compound 306, N-((5-chloro-6-((3-methylisoxazol-5-yl)methoxy)-1H-indol-2-yl)methyl)-3,3-difluorotetrahydrofuran-2-carboxamide], 633 nM. Then `Cc1cc(COc2cc3[nH]c(CNC(=O)[C@@]4(C)CCCO4)cc3cc2Cl)on1` [Compound 307, (R)-N-((5-chloro-6-((3-methylisoxazol-5-yl)methoxy)-1H-indol-2-yl)methyl)-2-methyltetrahydrofuran-2-carboxamide], with 579 nM; and `O=C(NCc1cc2cc(Cl)c(OCc3cscn3)cc2[nH]1)[C@H]1CCOC1` [Compound 308, (S)-N-((5-chloro-6-(thiazol-4-ylmethoxy)-1H-indol-2-yl)methyl)tetrahydrofuran-3-carboxamide], with 168 nM. Then `O=C(CCO)NCc1cc2cc(Cl)c(OCc3cscn3)cc2[nH]1` [Compound 309, N-((5-chloro-6-(thiazol-4-ylmethoxy)-1H-indol-2-yl)methyl)-3-hydroxypropanamide], with 1750 nM; and `Cc1cc(COc2cc3[nH]c(CNC(=O)CC4CCCO4)cc3cc2Cl)on1` (stereo not drawn) [Compound 310, N-((5-chloro-6-((3-methylisoxazol-5-yl)methoxy)-1H-indol-2-yl)methyl)-2-(tetrahydrofuran-2-yl)acetamide], with 2520 nM; and `Cc1cc(COc2cc3[nH]c(CNC(=O)[C@H]4CCCO4)cc3cc2Cl)on1` [Compound 311, (R)-N-((5-chloro-6-((3-methylisoxazol-5-yl)methoxy)-1H-indol-2-yl)methyl)tetrahydrofuran-2-carboxamide], with 129 nM. As to `Cc1cc(COc2cc3[nH]c(CNC(=O)[C@@H]4CCCO4)cc3cc2Cl)on1` [Compound 312, (S)-N-((5-chloro-6-((3-methylisoxazol-5-yl)methoxy)-1H-indol-2-yl)methyl)tetrahydrofuran-2-carboxamide], the concentration for half-maximal inhibition (IC50) worked out at 317 nM. Under `CO[C@@H](C)C(=O)NCc1cc2cc(Cl)c(OCc3cc(C)no3)cc2[nH]1` [Compound 313, (S)-N-((5-chloro-6-((3-methylisoxazol-5-yl)methoxy)-1H-indol-2-yl)methyl)-2-methoxypropanamide] stands 125 nM.
